Assay results from ChEMBL document CHEMBL1149286 (J Med Chem, 2004).

Legend:
[1] = molecular target: 5-hydroxytryptamine receptor 7 (Homo sapiens, UniProt P34969); test: Agonist activity at 5-carboxamidotryptamine desensitized 5HT7 receptor assessed as relaxation of substance P-induced contraction of Dunkin-Hartley guinea pig ileum; assay type: functional, tissue-based; parameters: concentration or dose not given beside the values; details: Cavia porcellus, target entry is the homologue from another species
Sequence of 5-hydroxytryptamine receptor 7 (Homo sapiens, UniProt P34969) (P34969 whole entry): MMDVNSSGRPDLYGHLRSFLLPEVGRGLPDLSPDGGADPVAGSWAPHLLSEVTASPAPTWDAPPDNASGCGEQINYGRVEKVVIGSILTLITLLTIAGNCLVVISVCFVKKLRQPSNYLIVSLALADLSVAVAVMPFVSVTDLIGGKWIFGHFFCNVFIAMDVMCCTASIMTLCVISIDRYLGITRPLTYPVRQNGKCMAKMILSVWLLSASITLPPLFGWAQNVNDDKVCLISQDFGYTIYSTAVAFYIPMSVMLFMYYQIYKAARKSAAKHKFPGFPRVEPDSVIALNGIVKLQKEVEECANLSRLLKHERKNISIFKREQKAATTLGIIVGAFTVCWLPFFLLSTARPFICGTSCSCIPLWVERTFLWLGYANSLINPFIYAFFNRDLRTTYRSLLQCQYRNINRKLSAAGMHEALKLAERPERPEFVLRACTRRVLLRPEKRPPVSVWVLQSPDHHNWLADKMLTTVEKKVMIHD

Rattus norvegicus [2] = species on record: Rattus norvegicus; test: Selectivity for rat 5HT7 receptor over rat 5HT1A receptor
Rattus norvegicus [3] = species on record: Rattus norvegicus; test: Selectivity for rat 5HT7 receptor over rat 5HT2A receptor
[4] = molecular target: 5-hydroxytryptamine receptor 7 (Rattus norvegicus, UniProt P32305); test: Displacement of [3H]LSD from rat recombinant 5HT7 receptor expressed in HEK293 cells; assay type: cell-based
Sequence of 5-hydroxytryptamine receptor 7 (Rattus norvegicus, UniProt P32305) (P32305 whole entry): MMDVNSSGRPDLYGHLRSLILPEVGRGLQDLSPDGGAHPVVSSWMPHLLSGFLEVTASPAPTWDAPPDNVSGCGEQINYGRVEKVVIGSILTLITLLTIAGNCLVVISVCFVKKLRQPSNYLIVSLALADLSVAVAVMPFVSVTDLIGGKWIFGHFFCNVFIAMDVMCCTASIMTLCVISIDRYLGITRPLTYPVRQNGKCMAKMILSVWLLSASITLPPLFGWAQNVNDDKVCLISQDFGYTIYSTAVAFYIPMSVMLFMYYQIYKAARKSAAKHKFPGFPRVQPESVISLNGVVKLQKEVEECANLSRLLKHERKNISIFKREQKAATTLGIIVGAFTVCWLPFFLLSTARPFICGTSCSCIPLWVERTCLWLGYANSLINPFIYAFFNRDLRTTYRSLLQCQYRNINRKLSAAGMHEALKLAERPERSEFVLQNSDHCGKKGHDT

[5] = molecular target: T1, 5-hydroxytryptamine receptor 1A (Rattus norvegicus, UniProt P19327); test: Displacement of [3H]8-OH-DPAT from 5HT1A receptor in Wistar Han rat hippocampal membranes; assay type: cell membranes, Membrane
T1 sequence (P19327 whole entry): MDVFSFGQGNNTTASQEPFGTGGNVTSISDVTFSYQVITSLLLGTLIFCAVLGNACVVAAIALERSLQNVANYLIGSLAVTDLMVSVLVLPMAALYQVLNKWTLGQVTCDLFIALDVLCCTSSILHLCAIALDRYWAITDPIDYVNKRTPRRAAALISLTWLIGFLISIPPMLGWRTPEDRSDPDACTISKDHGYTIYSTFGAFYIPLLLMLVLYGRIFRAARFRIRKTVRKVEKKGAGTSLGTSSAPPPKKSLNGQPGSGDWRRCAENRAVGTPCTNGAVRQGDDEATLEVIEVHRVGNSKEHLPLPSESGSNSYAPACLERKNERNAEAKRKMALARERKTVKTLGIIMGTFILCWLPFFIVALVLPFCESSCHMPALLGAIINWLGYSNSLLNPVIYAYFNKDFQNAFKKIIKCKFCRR

[6] = molecular target: 5-hydroxytryptamine receptor 2A (Rattus norvegicus) (UniProt P14842); test: (§1) Displacement of [3H]ketanserin from 5HT2A receptor in Wistar Han rat cortex membranes; assay type: cell membranes; details: Membrane
Sequence of 5-hydroxytryptamine receptor 2A (Rattus norvegicus) (P14842 whole entry): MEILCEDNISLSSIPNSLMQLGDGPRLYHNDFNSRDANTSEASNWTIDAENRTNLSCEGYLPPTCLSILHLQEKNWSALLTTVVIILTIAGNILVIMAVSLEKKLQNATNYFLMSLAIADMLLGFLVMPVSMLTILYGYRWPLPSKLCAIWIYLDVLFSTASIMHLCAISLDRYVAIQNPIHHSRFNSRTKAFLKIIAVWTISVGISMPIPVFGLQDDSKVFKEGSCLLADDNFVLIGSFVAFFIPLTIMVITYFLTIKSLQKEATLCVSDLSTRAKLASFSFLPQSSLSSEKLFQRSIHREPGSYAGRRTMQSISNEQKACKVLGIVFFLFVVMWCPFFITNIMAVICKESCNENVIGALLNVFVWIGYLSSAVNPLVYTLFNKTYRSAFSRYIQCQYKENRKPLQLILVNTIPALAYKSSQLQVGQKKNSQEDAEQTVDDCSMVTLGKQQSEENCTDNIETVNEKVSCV

[7] = molecular target: 5-hydroxytryptamine receptor 2A (Rattus norvegicus, UniProt P14842); test: as §1; assay type: cell membranes, Membrane
Sequence of 5-hydroxytryptamine receptor 2A (P14842 whole entry): as above

Compound | Activity [1] [%] | Ki [4] [nM] | also measured
CSc1ccccc1N1CCN(CCCCCC(=O)NC2CCCc3ccccc32)CC1 (centres undefined) | 100 |  | Selectivity ratio (Rattus norvegicus [2]): 200; Selectivity ratio (Rattus norvegicus [3]): > 1000
O=C(CCCCCN1CCN(c2nc3ccccc3[nH]2)CC1)NC1CCCc2ccccc21 (centres undefined) |  | 356 | Ki [5]: 2600 nM
COc1ccccc1N1CCN(CCCCCC(=O)NC2CCCc3ccccc32)CC1 (centres undefined) | 91 |  | 
O=C(CCCCCN1CCN(c2ccccc2O)CC1)NC1CCCc2ccccc21 (centres undefined) | 0 |  | 
NCCc1c[nH]c2ccc(C(N)=O)cc12 | 100 |  | 
Cc1ccccc1N1CCN(CCCCCC(=O)NC2CCCc3ccccc32)CC1 (centres undefined) | 98 |  | 
CC(=O)c1ccccc1N1CCN(CCCCCC(=O)NC2CCCc3ccccc32)CC1 (centres undefined) | 79 |  | 
NC(=O)c1ccccc1N1CCN(CCCCCC(=O)NC2CCCc3ccccc32)CC1 (centres undefined) |  |  | Activity [6]: 9%; Ki [7]: > 4000 nM
COc1ccc2oc(N3CCN(CCCCCC(=O)NC4CCCc5ccccc54)CC3)nc2c1 (centres undefined) |  | 704 | 
O=C(CCCCCN1CCN(c2nc3ccccc3o2)CC1)NC1CCCc2ccccc21 (centres undefined) |  | 820 | 
CS(=O)(=O)c1ccccc1N1CCN(CCCCCC(=O)NC2CCCc3ccccc32)CC1 (centres undefined) |  |  | Activity [6]: 38%; Ki [7]: > 4000 nM
O=C(CCCCCN1CCN(c2noc3ccccc23)CC1)NC1CCCc2ccccc21 (centres undefined) |  | 125 | Ki [5]: 3900 nM
COc1ccccc1N1CCN(CC(=O)NC2CCCc3c(OC)cccc32)CC1 (centres undefined) |  | > 1000 | 
